Test results taken from US6992169B2, “Carrier based drug delivery system” (Cyclacel Limited, priority 1998, dated 2006).
Where no end group is shown, it is not given here.

What was measured:
[1] = Serum stability of peptide vectors; conditions: for half-life: bovine, serum
Experimental: Test compounds were dissolved in cell-conditioned tissue culture medium (10% FCS in DMEM) at concentrations varying from 1 to 40 μM. The solutions were incubated at 37° C. and samples were withdrawn at intervals. After filtration, aliquots were analysed by RP-HPLC (using a photodiode array UV detector). Intact vectors were identified by reference to chromatograms obtained with authentic peptides and by DE MALDI-TOF analysis of appropriate peak fractions. […] The latter was chosen preferentially in order to replicate the conditions used for cytotoxicity assays on cell cultures.

[2] = Serum stability of drug-ester linkages; assay type: in vitro ADME; conditions: bovine, cell-conditioned tissue culture medium (FCS in DMEM); 10% FCS in DMEM, 1 to 40 μM, 37° C.; appearance of free drug; read-out: Serum t1/2 of Drug-Linker Ester bond
Experimental: Hydrolysis of the ester bonds between the drug hydroxy groups and the linker carboxyl groups was assessed by appearance of free podophyllotoxin or paclitaxel.

HT29 = assay: In vitro cytotoxic activity, inhibition of cell proliferation, ATP bioluminescence (ViaLight); assay type: cell-based, human
Experimental: (§1) This compound (abbreviated ‘MTX-Pen’ in the tables below) was evaluated for its ability to inhibit cell proliferation of normal (immortalised) human cells (HaCaT cells, Tables 1 & 2) and a human colorectal cancer cell line (HT29, Table 3).
(§2) Assay procedure—Cells were seeded into 96-well plates at 2,500 cells/well in DMEM with 10% FCS and antibiotics. After overnight incubation, test compound dilutions in cell medium were prepared and were added to the cells. Samples were taken 1, 2, 3, and 4 days after compound addition. Nucleotide Releasing Reagent (LumiTech ViaLight kit) was added in order to lyse the cells and release ATP. After incubation at room temperature (5 min), the mixtures were transferred to opaque 96-well plates and stored at −20° C. until analysis. After loading plates into a luminometer (Lucy 1, Labtech International), ATP Monitoring Reagent (20 μL/well, LumiTech ViaLight kit) was added to each well successively and light intensity was measured immediately. Six readings were taken per sample. Each assay point was established using six replicates and appropriate controls. […] Statistically significant results in the tables below are printed in bold face.
(§3) This compound (abbreviated ‘MTX-Pen’ in tables below) was evaluated for its ability to inhibit cell proliferation of normal (immortalised) human cells (HaCaT cells, Tables 1 & 2) and a human colorectal cancer cell line (HT29, Table 3).
(§4) Assay procedure—Cells were seeded into 96-well plates at 2,500 cells/well in DMEM with 10% foetal calf serum and antibiotics. After overnight incubation, test compound dilutions in cell medium were prepared and were added to the cells. Samples were taken 1, 2, 3, and 4 days after compound addition. Nucleotide Releasing Reagent (LumiTech ViaLight kit) was added in order to lyse the cells and release ATP. After incubation at room temperature (5 min), the mixtures were transferred to opaque 96-well plates and stored at −20° C. until analysis. After loading plates into a luminometer (Lucy 1, Labtech International), ATP Monitoring Reagent ([…], LumiTech ViaLight kit) was added to each well successively and light intensity was measured immediately. Six readings were taken per sample. Each assay point was established using six replicates and appropriate controls.

HaCaT cells = assay: as above; assay type: cell-based, human
Experimental: as §1, §2, §3, §4

CC[C@H](C)[C@H](NC(=O)[C@H](CCCCN)NC(=O)[C@@H](NC(=O)[C@H](CCC(N)=O)NC(=O)[C@@H](N)CCCNC(=N)N)[C@@H](C)CC)C(=O)N[C@@H](Cc1c[nH]c2ccccc12)C(=O)N[C@@H](Cc1ccccc1)C(=O)N[C@@H](CCC(N)=O)C(=O)N[C@@H](CC(N)=O)C(=O)N[C@@H](CCCNC(=N)N)C(=O)N[C@@H](CCCNC(=N)N)C(=O)N[C@@H](CCSC)C(=O)N[C@@H](CCCCN)C(=O)N[C@@H](Cc1c[nH]c2ccccc12)C(=O)N[C@@H](CCCCN)C(=O)N[C@@H](CCCCN)C(N)=O
half-life [1]: > 12 h

CC[C@H](C)[C@H](NC(=O)[C@H](CCCCN)NC(=O)[C@@H](NC(=O)[C@H](CCC(N)=O)NC(=O)[C@H](CCCNC(=N)N)NC(=O)[C@@H](N)CSC1CC(=O)N(CCC(=O)O[C@@H](C(=O)O[C@H]2C[C@@]3(O)[C@@H](OC(=O)c4ccccc4)[C@@H]4[C@]5(OC(C)=O)CO[C@@H]5C[C@H](O)[C@@]4(C)C(=O)[C@H](OC(C)=O)C(=C2C)C3(C)C)[C@@H](NC(=O)c2ccccc2)c2ccccc2)C1=O)[C@@H](C)CC)C(=O)N[C@@H](Cc1c[nH]c2ccccc12)C(=O)N[C@@H](Cc1ccccc1)C(=O)N[C@@H](CCC(N)=O)C(=O)N[C@@H](CC(N)=O)C(=O)N[C@@H](CCCNC(=N)N)C(=O)N[C@@H](CCCNC(=N)N)C(=O)N[C@@H](CCSC)C(=O)N[C@@H](CCCCN)C(=O)N[C@@H](Cc1c[nH]c2ccccc12)C(=O)N[C@@H](CCCCN)C(=O)N[C@@H](CCCCN)C(N)=O (single isomer, unassigned) [C]
half-life [2]: > 12 h

CC[C@@H](C)[C@@H](NC(=O)[C@@H](CCCCN)NC(=O)[C@H](NC(=O)[C@@H](CCC(N)=O)NC(=O)[C@H](N)CCCNC(=N)N)[C@H](C)CC)C(=O)N[C@H](Cc1c[nH]c2ccccc12)C(=O)N[C@H](Cc1ccccc1)C(=O)N[C@H](CCC(N)=O)C(=O)N[C@H](CC(N)=O)C(=O)N[C@H](CCCNC(=N)N)C(=O)N[C@H](CCCNC(=N)N)C(=O)N[C@H](CCSC)C(=O)N[C@H](CCCCN)C(=O)N[C@H](Cc1c[nH]c2ccccc12)C(=O)N[C@H](CCCCN)C(=O)N[C@H](CCCCN)C(N)=O [H-D-Arg-D-Gln-D-Ile-D-Lys-D-Ile-D-Trp-D-Phe-D-Gln-D-Asn-D-Arg-D-Arg-D-Met-D-Lys-D-Trp-D-Lys-D-Lys-NH3]
half-life [1]: > 24 h

H-RRMKWKK-NH2 [H-Arg-Arg-Met-Lys-Trp-Lys-Lys-NH2]
half-life [1]: 3 h

RQIKIWFQNRRMKWK [15mer peptide]
Serum stability of vector in words [1]: survive for several h

{[4[N-(2,4-Diamino-6-pteridinyl-methyl)-N-methylamino]benzoyl]-Glu-Gly-βAla}4-Lys2-Lys-βAla-Arg-Gln-Ile-Lys-Ile-Trp-Phe-Gln-Asn-Arg-Arg-Met-Lys-Trp-Lys-Lys-OH [MTX-Pen]
% Cell Death (HT29; Table 3, HT 29, Dose 0.5 μM, Day 1): 14% | % Cell Death (HT29; Table 3, HT 29, Dose 0.5 μM, Day 2): 8% | % Cell Death (HT29; Table 3, HT 29, Dose 0.5 μM, Day 3): 17% | % Cell Death (HT29; Table 3, HT 29, Dose 0.5 μM, Day 4): 16% | % Cell Death (HT29; Table 3, HT 29, Dose 1.5 μM, Day 1): 16% | % Cell Death (HT29; Table 3, HT 29, Dose 1.5 μM, Day 2): 9% | % Cell Death (HT29; Table 3, HT 29, Dose 1.5 μM, Day 3): 15% | % Cell Death (HT29; Table 3, HT 29, Dose 1.5 μM, Day 4): 45% | % Cell Death (HT29; Table 3, HT 29, Dose 4.4 μM, Day 1): 10% | % Cell Death (HT29; Table 3, HT 29, Dose 4.4 μM, Day 2): 6% | % Cell Death (HT29; Table 3, HT 29, Dose 4.4 μM, Day 3): 46% | % Cell Death (HT29; Table 3, HT 29, Dose 4.4 μM, Day 4): 77% | % Cell Death (HT29; Table 3, HT 29, Dose 13.3 μM, Day 1): 3% | % Cell Death (HT29; Table 3, HT 29, Dose 13.3 μM, Day 2): 45% | % Cell Death (HT29; Table 3, HT 29, Dose 13.3 μM, Day 3): 88% | % Cell Death (HT29; Table 3, HT 29, Dose 13.3 μM, Day 4): 96% | % Cell Death (HT29; Table 3, HT 29, Dose 40.0 μM, Day 1): 31% | % Cell Death (HT29; Table 3, HT 29, Dose 40.0 μM, Day 2): 79% | % Cell Death (HT29; Table 3, HT 29, Dose 40.0 μM, Day 3): 96% | % Cell Death (HT29; Table 3, HT 29, Dose 40.0 μM, Day 4): 98% | % Cell Death (HaCaT cells; Table 1, HaCaT, Dose 0.2 μM, Day 1): 14% | % Cell Death (HaCaT cells; Table 1, HaCaT, Dose 0.2 μM, Day 2): 21% | % Cell Death (HaCaT cells; Table 1, HaCaT, Dose 0.2 μM, Day 3): 20% | % Cell Death (HaCaT cells; Table 1, HaCaT, Dose 0.2 μM, Day 4): 51% | % Cell Death (HaCaT cells; Table 1, HaCaT, Dose 0.5 μM, Day 1): −19% | % Cell Death (HaCaT cells; Table 1, HaCaT, Dose 0.5 μM, Day 2): 2% | % Cell Death (HaCaT cells; Table 1, HaCaT, Dose 0.5 μM, Day 3): 29% | % Cell Death (HaCaT cells; Table 1, HaCaT, Dose 0.5 μM, Day 4): 49% | % Cell Death (HaCaT cells; Table 1, HaCaT, Dose 1.5 μM, Day 1): −24% | % Cell Death (HaCaT cells; Table 1, HaCaT, Dose 1.5 μM, Day 2): 82% | % Cell Death (HaCaT cells; Table 1, HaCaT, Dose 1.5 μM, Day 3): 82% | % Cell Death (HaCaT cells; Table 1, HaCaT, Dose 1.5 μM, Day 4): 88% | % Cell Death (HaCaT cells; Table 1, HaCaT, Dose 4.4 μM, Day 1): −8% | % Cell Death (HaCaT cells; Table 1, HaCaT, Dose 4.4 μM, Day 2): 45% | % Cell Death (HaCaT cells; Table 1, HaCaT, Dose 4.4 μM, Day 3): 95% | % Cell Death (HaCaT cells; Table 1, HaCaT, Dose 4.4 μM, Day 4): 98% | % Cell Death (HaCaT cells; Table 1, HaCaT, Dose 13.3 μM, Day 1): −42% | % Cell Death (HaCaT cells; Table 1, HaCaT, Dose 13.3 μM, Day 2): 63% | % Cell Death (HaCaT cells; Table 1, HaCaT, Dose 13.3 μM, Day 3): 97% | % Cell Death (HaCaT cells; Table 1, HaCaT, Dose 13.3 μM, Day 4): 98% | % Cell Death (HaCaT cells; Table 1, HaCaT, Dose 40.0 μM, Day 1): 29% | % Cell Death (HaCaT cells; Table 1, HaCaT, Dose 40.0 μM, Day 2): 82% | % Cell Death (HaCaT cells; Table 1, HaCaT, Dose 40.0 μM, Day 3): 97% | % Cell Death (HaCaT cells; Table 1, HaCaT, Dose 40.0 μM, Day 4): 98% | % Cell Death (HaCaT cells; Table 2, HaCaT, Dose 0.5 μM, Day 1): 13% | % Cell Death (HaCaT cells; Table 2, HaCaT, Dose 0.5 μM, Day 2): 24% | % Cell Death (HaCaT cells; Table 2, HaCaT, Dose 0.5 μM, Day 3): −27% | % Cell Death (HaCaT cells; Table 2, HaCaT, Dose 0.5 μM, Day 4): 2% | % Cell Death (HaCaT cells; Table 2, HaCaT, Dose 1.5 μM, Day 1): 19% | % Cell Death (HaCaT cells; Table 2, HaCaT, Dose 1.5 μM, Day 2): 12% | % Cell Death (HaCaT cells; Table 2, HaCaT, Dose 1.5 μM, Day 3): −16% | % Cell Death (HaCaT cells; Table 2, HaCaT, Dose 1.5 μM, Day 4): 17% | % Cell Death (HaCaT cells; Table 2, HaCaT, Dose 4.4 μM, Day 1): 15% | % Cell Death (HaCaT cells; Table 2, HaCaT, Dose 4.4 μM, Day 2): 52% | % Cell Death (HaCaT cells; Table 2, HaCaT, Dose 4.4 μM, Day 3): 95% | % Cell Death (HaCaT cells; Table 2, HaCaT, Dose 4.4 μM, Day 4): 88% | % Cell Death (HaCaT cells; Table 2, HaCaT, Dose 13.3 μM, Day 1): 27% | % Cell Death (HaCaT cells; Table 2, HaCaT, Dose 13.3 μM, Day 2): 87% | % Cell Death (HaCaT cells; Table 2, HaCaT, Dose 13.3 μM, Day 3): 95% | % Cell Death (HaCaT cells; Table 2, HaCaT, Dose 13.3 μM, Day 4): 94% | % Cell Death (HaCaT cells; Table 2, HaCaT, Dose 40.0 μM, Day 1): 42% | % Cell Death (HaCaT cells; Table 2, HaCaT, Dose 40.0 μM, Day 2): 88% | % Cell Death (HaCaT cells; Table 2, HaCaT, Dose 40.0 μM, Day 3): 95% | % Cell Death (HaCaT cells; Table 2, HaCaT, Dose 40.0 μM, Day 4): 94%
